From ChEMBL document CHEMBL1201862, “PubChem BioAssay data set” (2004)
Active and inactive are the calls of the source.

Tests used:
BJ [1] = assay: growth inhibition of engineered Ras-driven BJ cells – cell-based, alamar blue fluorescence, cherrypicked samples, dose response (AID 2631); format: functional; details: Homo sapiens;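 note: confirmatory dose-response assay in RAS-dependent BJ fibroblasts engineered with TERT, LT and ST, with cytotoxicity read by fluorescence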
Paired box protein Pax-8 = Paired box protein Pax-8 (Homo sapiens, UniProt Q06710); assay: PAX8 transcriptional activity inhibition in RMG-I – RMG-I cells, luciferase, cherry-pick, dose response (AID 687027); format: functional, cell-based;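 note: luciferase reporter driven by Pax8 target thyroperoxidase promoter measured by SteadyGlo luminescence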
BJ [2] = assay: BJ-TERT-LT-ST fibroblast viability loss – cell-based, RAS-independent, luminescence, dose response (AID 1935); format: functional; details: Homo sapiens;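 note: BJ fibroblasts immortalized with TERT plus LT and ST oncogenes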
[3] = target: T1, Microphthalmia-associated transcription factor (Homo sapiens, UniProt O75030); assay: reducers of TRPM1 reporter luminescence, concentration series – cell-based, SK-MEL-5, cherry-picked, set 3, MITF inhibitor project, dose response (AID 493073); format: functional;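 note: SK-MEL-5 melanoma cells with luciferase driven by the MITF target TRPM1 promoter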
T1 sequence (O75030 whole entry): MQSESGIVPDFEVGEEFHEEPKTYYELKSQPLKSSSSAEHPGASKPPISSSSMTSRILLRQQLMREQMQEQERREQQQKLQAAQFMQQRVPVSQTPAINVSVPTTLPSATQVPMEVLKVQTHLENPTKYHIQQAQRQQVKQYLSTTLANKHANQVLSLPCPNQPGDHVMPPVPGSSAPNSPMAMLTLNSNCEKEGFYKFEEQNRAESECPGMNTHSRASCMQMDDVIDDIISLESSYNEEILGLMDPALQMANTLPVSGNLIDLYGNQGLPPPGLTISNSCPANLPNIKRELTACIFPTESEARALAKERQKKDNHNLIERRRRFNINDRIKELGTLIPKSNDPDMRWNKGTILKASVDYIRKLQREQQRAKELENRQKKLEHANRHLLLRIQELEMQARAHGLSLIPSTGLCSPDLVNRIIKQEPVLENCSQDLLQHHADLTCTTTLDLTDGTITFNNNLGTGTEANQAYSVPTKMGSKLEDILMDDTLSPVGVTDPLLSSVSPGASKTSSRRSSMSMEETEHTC

A-375 = assay: proliferation inhibition in MITF-low A375 cells – cell-based, cherry-pick samples, set 2, counter-screen for MITF modulator project, dose response (AID 540335); format: functional; details: Homo sapiens
BJ [4] = assay: BJ-TERT fibroblast viability loss – cell-based, RAS-independent, luminescence, dose response (AID 1933); format: functional; details: Homo sapiens
BJ [5] = assay: cells; format: functional, cell-based; details: Homo sapiens
[6] = DRD fibroblast viability loss – cell-based, non-viral oncogenic, luminescence, dose response (AID 1934); format: functional; details: Homo sapiens
Vero [7] = assay: cells; format: functional, cell-based; details: Chlorocebus sabaeus
Vero [8] = assay: cells; format: functional; details: Chlorocebus sabaeus
Jurkat = assay: SAR Analysis of small molecule inhibitors of T-cell specific antigen receptor-induced NF-kB activation in a Jurkat cell line using a luminescence assay - Set 2. [Related pubchem assays (depositor defined):AID435003, AID435012, AID465]; format: functional, cell-based; details: Homo sapiens
HEK293 [9] = assay: SAR Analysis of small molecule inhibitors of T-cell specific antigen receptor-induced NF-kB activation in a HEK-293T cell line using a luminescence assay - Set 2. [Related pubchem assays (depositor defined):AID435003, AID435012, AID489026]; format: functional, cell-based; details: Homo sapiens
HEK293 [10] = assay: HEK293T cell viability loss, resazurin readout – resazurin fluorescence, cytotoxicity control for NF-kB activator project, SAR follow-up (AID 493251); format: functional, cell-based; details: Homo sapiens, HEK293

Sequence of Paired box protein Pax-8 (Q06710 whole entry): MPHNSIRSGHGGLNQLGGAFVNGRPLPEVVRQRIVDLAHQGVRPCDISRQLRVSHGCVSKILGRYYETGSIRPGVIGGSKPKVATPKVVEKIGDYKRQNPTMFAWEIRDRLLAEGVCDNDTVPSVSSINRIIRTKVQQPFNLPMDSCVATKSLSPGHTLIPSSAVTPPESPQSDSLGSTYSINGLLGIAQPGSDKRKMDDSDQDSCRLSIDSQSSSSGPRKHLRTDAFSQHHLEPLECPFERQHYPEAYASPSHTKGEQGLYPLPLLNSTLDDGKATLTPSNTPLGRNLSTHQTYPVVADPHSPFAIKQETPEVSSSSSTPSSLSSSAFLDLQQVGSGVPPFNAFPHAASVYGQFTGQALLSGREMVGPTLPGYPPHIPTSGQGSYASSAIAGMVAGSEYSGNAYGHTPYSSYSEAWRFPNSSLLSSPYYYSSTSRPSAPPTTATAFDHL

Cc1cc(-n2c(SCC(=O)NCCC3=CCCCC3)nc3nnc(C)c-3c2N)ccc1Cl
EC50 (BJ [1]): > 133 µM (inactive)
AC50 (Paired box protein Pax-8): 7.33 µM (active)
EC50 (BJ [2]): > 150 µM (inconclusive)
AC50 [3]: 17.1 µM (active)
AC50 (A-375): 37.6 µM (active)
EC50 (BJ [4]): 6.61 µM (active)
EC50 (BJ [5]): > 150 µM (not active)
EC50 [6]: 14 µM (active)

O=c1c2ccccc2nc(/C=C/c2cc(Br)ccc2O)n1CCCO
IC50 (Vero [7]): > 25 µM (active)
CC50 (Vero [8]): 22.8 µM (active)

CCCOc1ccc(C(=O)Nc2ccc(NC(=O)c3cc4ccccc4o3)cc2)cc1
IC50 (Jurkat): > 79 µM (inactive)
IC50 (HEK293 [9]): > 80 µM (inactive)
IC50 (HEK293 [10]): > 80 µM (inactive)
